Source: PubChem BioAssay AID184 (DTP/NCI, 2004)
“And” between values parts separate entries of the source, which are not always exact repeats. Equal values may be shown once. Toxic doses and inconclusive results are not listed.

System: BALB/cJ mice, ADJ-PC-6 ip tumor, median survival T/C
Assay: NCI In Vivo Anticancer Drug Screen. Data for tumor model ADJ-PC-6 (intraperitoneal) in BALB/cJ mice
Settings: endpoint: median survival time, higher = longer survival
Method: The antitumor activity of compounds was measured in mice bearing transplantable tumors. Survival or tumor size were measured and the results are expressed as the measurement made in the treated group (T) divided by the measurement made in the vehicle treated control group (C). The tumor model used in this assay is ADJ-PC-6 (intraperitoneal) in BALB/cJ mice

[1] = dose: 50.0 mg/kg/injection, schedule: Q04DX003 (ip), vehicle: alkali diluted with saline
[2] = dose: 100.0 mg/kg/injection, schedule: Q04DX003 (ip), vehicle: alkali diluted with saline
[3] = dose: 10.0 mg/kg/injection, schedule: Q04DX003 (ip), vehicle: saline
[4] = dose: 20.0 mg/kg/injection, schedule: Q04DX003 (ip), vehicle: saline
[5] = dose: 2.0 mg/kg/injection, schedule: Q04DX003 (ip), vehicle: saline
[6] = dose: 8.0 mg/kg/injection, schedule: Q04DX003 (ip), vehicle: saline

CC1(C)N=C(N)N=C(N)N1c1ccc(CCCCc2ccc(S(=O)(=O)F)cc2Cl)c(Cl)c1
T/C (dose: 2.5 mg/kg/injection, schedule: Q01DX009 (ip), vehicle: saline): 88 % of control
T/C (dose: 5.0 mg/kg/injection, schedule: Q01DX009 (ip), vehicle: saline): 101 % of control
T/C (dose: 10.0 mg/kg/injection, schedule: Q01DX009 (ip), vehicle: saline): 106 % of control
T/C (dose: 12.5 mg/kg/injection, schedule: Q04DX003 (ip), vehicle: Klucel (hydroxypropylcellulose) (HPC)): 96 % of control
T/C (dose: 20.0 mg/kg/injection, schedule: Q01DX009 (ip), vehicle: saline): 119 % of control
T/C (dose: 25.0 mg/kg/injection, schedule: Q04DX003 (ip), vehicle: Klucel (hydroxypropylcellulose) (HPC)): 91 % of control
T/C (dose: 50.0 mg/kg/injection, schedule: Q04DX003 (ip), vehicle: Klucel (hydroxypropylcellulose) (HPC)): 92 % of control
T/C (dose: 100.0 mg/kg/injection, schedule: Q04DX003 (ip), vehicle: Klucel (hydroxypropylcellulose) (HPC)): 91 % of control
T/C (dose: 200.0 mg/kg/injection, schedule: Q04DX003 (ip), vehicle: Klucel (hydroxypropylcellulose) (HPC)): 91 % of control

CC1(CO)C(O)CCC2(C)C1CCC1CC3CC12CCC3(O)CO (stereo not given)
T/C (dose: 37.5 mg/kg/injection, schedule: Q04DX003 (ip), vehicle: Klucel (hydroxypropylcellulose) (HPC)): 92 % of control and 120 % of control
T/C (dose: 75.0 mg/kg/injection, schedule: Q04DX003 (ip), vehicle: Klucel (hydroxypropylcellulose) (HPC)): 115 % of control and 118 % of control
T/C (dose: 150.0 mg/kg/injection, schedule: Q04DX003 (ip), vehicle: Klucel (hydroxypropylcellulose) (HPC)): 100 % of control and 109 % of control
T/C (dose: 600.0 mg/kg/injection, schedule: Q04DX003 (ip), vehicle: Klucel (hydroxypropylcellulose) (HPC)): 106 % of control

NC(C/[N+]([O-])=N/O)C(=O)O (stereo not given)
T/C [1]: 108 % of control
T/C [2]: 115 % of control
T/C (dose: 250.0 mg/kg/injection, schedule: Q04DX003 (ip), vehicle: alkali diluted with saline): 153 % of control
T/C (dose: 400.0 mg/kg/injection, schedule: Q04DX003 (ip), vehicle: alkali diluted with saline): 171 % of control
T/C (dose: 500.0 mg/kg/injection, schedule: Q04DX003 (ip), vehicle: alkali diluted with saline): 188 % of control
T/C (dose: 800.0 mg/kg/injection, schedule: Q04DX003 (ip), vehicle: alkali diluted with saline): 167 % of control

CC(=O)N(C)c1ccc(Nc2cc(C)[nH]c3ccc4ncnc4c23)cc1
T/C [3]: 100 % of control
T/C [4]: 162 % of control
T/C (dose: 40.0 mg/kg/injection, schedule: Q04DX003 (ip), vehicle: saline): 107 % of control

S=c1nc[nH]c2nc[nH]c12
T/C (dose: 10.0 mg/kg/injection, schedule: Q04DX003 (ip), vehicle: alkali diluted with saline): 335 % of control
T/C (dose: 20.0 mg/kg/injection, schedule: Q04DX003 (ip), vehicle: alkali diluted with saline): 335 % of control
T/C (dose: 25.0 mg/kg/injection, schedule: Q04DX003 (ip), vehicle: alkali diluted with saline): 471 % of control
T/C (dose: 40.0 mg/kg/injection, schedule: Q04DX003 (ip), vehicle: alkali diluted with saline): 335 % of control
T/C [1]: 471 % of control
T/C (dose: 80.0 mg/kg/injection, schedule: Q04DX003 (ip), vehicle: alkali diluted with saline): 335 % of control
T/C [2]: 178 % of control and 471 % of control
T/C (dose: 100.0 mg/kg/injection, schedule: Q04DX003 (ip), vehicle: alkali diluted with water): 275 % of control and 283 % of control
T/C (dose: 160.0 mg/kg/injection, schedule: Q04DX003 (ip), vehicle: alkali diluted with saline): 335 % of control
T/C (dose: 200.0 mg/kg/injection, schedule: Q04DX003 (ip), vehicle: alkali diluted with saline): 93 % of control
T/C (dose: 200.0 mg/kg/injection, schedule: Q04DX003 (ip), vehicle: alkali diluted with water): 275 % of control and 369 % of control

O=NN(CCCl)C(=O)NCCCl
T/C (dose: 1.25 mg/kg/injection, schedule: Q04DX003 (ip), vehicle: saline + alcohol): 106 % of control
T/C (dose: 5.0 mg/kg/injection, schedule: Q04DX003 (ip), vehicle: saline + alcohol): 101 % of control and 178 % of control and 248 % of control
T/C (dose: 10.0 mg/kg/injection, schedule: Q04DX003 (ip), vehicle: saline + alcohol): 150 % of control and 322 % of control
T/C (dose: 20.0 mg/kg/injection, schedule: Q04DX003 (ip), vehicle: saline + alcohol): 222 % of control and 235 % of control and 355 % of control
T/C (dose: 40.0 mg/kg/injection, schedule: Q04DX003 (ip), vehicle: saline + alcohol): 92 % of control and 235 % of control

N[C@@H](Cc1ccc(N(CCCl)CCCl)cc1)C(=O)O
T/C [5]: 177 % of control
T/C (dose: 2.5 mg/kg/injection, schedule: Q04DX003 (ip), vehicle: saline): 203 % of control
T/C (dose: 4.0 mg/kg/injection, schedule: Q04DX003 (ip), vehicle: saline): 236 % of control
T/C (dose: 5.0 mg/kg/injection, schedule: Q04DX003 (ip), vehicle: saline): 240 % of control
T/C [6]: 230 % of control
T/C [3]: 335 % of control
T/C (dose: 16.0 mg/kg/injection, schedule: Q04DX003 (ip), vehicle: saline): 307 % of control

CC(=O)[C@]1(O)Cc2c(O)c3c(c(O)c2[C@@H](OC2CC(N)C(O)C(C)O2)C1)C(=O)c1c(O)cccc1C3=O (stereo not given in full)
T/C (dose: 0.13 mg/kg/injection, schedule: Q04DX003 (ip), vehicle: saline): 164 % of control
T/C (dose: 0.25 mg/kg/injection, schedule: Q04DX003 (ip), vehicle: saline): 168 % of control
T/C (dose: 0.5 mg/kg/injection, schedule: Q04DX003 (ip), vehicle: saline): 178 % of control

COc1cccc2c1C(=O)c1c(O)c3c(c(O)c1C2=O)C[C@@](O)(C(C)=O)C[C@@H]3OC1CC(N(Cc2ccccc2)Cc2ccccc2)C(O)C(C)O1 (stereo not given in full)
T/C (dose: 5.0 mg/kg/injection, schedule: Q04DX003 (ip), vehicle: saline with Tween-80): 96 % of control
T/C (dose: 10.0 mg/kg/injection, schedule: Q04DX003 (ip), vehicle: saline with Tween-80): 109 % of control
T/C (dose: 20.0 mg/kg/injection, schedule: Q04DX003 (ip), vehicle: saline with Tween-80): 177 % of control

COc1cccc2c1C(=O)c1c(O)c3c(c(O)c1C2=O)C[C@@](O)(C(=O)CO)C[C@@H]3OC1CC(N)C(O)C(C)O1 (stereo not given in full)
T/C (dose: 0.5 mg/kg/injection, schedule: Q04DX003 (iv), vehicle: saline): 103 % of control
T/C (dose: 1.0 mg/kg/injection, schedule: Q04DX003 (iv), vehicle: saline): 92 % of control
T/C (dose: 2.0 mg/kg/injection, schedule: Q04DX003 (iv), vehicle: saline): 97 % of control
T/C (dose: 4.0 mg/kg/injection, schedule: Q04DX003 (iv), vehicle: saline): 95 % of control
T/C (dose: 8.0 mg/kg/injection, schedule: Q04DX003 (iv), vehicle: saline): 168 % of control and 225 % of control

Nc1ncn(C2OC(CO)C(O)C2O)c(=O)n1 (stereo not given)
T/C [5]: 120 % of control
T/C [6]: 157 % of control
T/C [3]: 185 % of control
T/C [4]: 219 % of control
T/C (dose: 32.0 mg/kg/injection, schedule: Q04DX003 (ip), vehicle: saline): 235 % of control

C(=N/NC1=NCCN1)/c1c2ccccc2c(/C=N\NC2=NCCN2)c2ccccc12
T/C (dose: 3.75 mg/kg/injection, schedule: Q04DX003 (ip), vehicle: saline): 253 % of control
T/C (dose: 3.75 mg/kg/injection, schedule: Q04DX003 (ip), vehicle: water): 235 % of control
T/C (dose: 7.5 mg/kg/injection, schedule: Q04DX003 (ip), vehicle: saline): 204 % of control
T/C (dose: 7.5 mg/kg/injection, schedule: Q04DX003 (ip), vehicle: water): 235 % of control
T/C (dose: 15.0 mg/kg/injection, schedule: Q04DX003 (ip), vehicle: saline): 253 % of control
T/C (dose: 15.0 mg/kg/injection, schedule: Q04DX003 (ip), vehicle: water): 235 % of control
T/C (dose: 30.0 mg/kg/injection, schedule: Q04DX003 (ip), vehicle: saline): 225 % of control
T/C (dose: 30.0 mg/kg/injection, schedule: Q04DX003 (ip), vehicle: water): 235 % of control
T/C (dose: 60.0 mg/kg/injection, schedule: Q04DX003 (ip), vehicle: saline): 267 % of control
